Measured values: patent US20140378426A1, “Methods and compositions for enhancing visual function” (priority 2013, published 2014)

Experiments:
[1] = cited from earlier work
[2] = target: T1, bovine rhodopsin activation of bovine rod transducin (Bos taurus, UniProt P02699); assay: radioactive filter binding assay: rhodopsin activation of bovine rod transducin (35S-GTPγS binding); assay type: biochemical
T1 construct: Rhodopsin can be purified from membrane fractions isolated from bovine rod outer segments; from tissue; host or cells: bovine retina / bovine rod outer segments
Excerpt: Vision enhancing activity of the estradiol analogs or derivatives can be examined in accordance with methods described herein or well known in the art. For example, the compounds can be assessed for ability to promote rhodopsin activation of rod transducin using a well-described radioactive filter binding assay. Detailed procedures for carrying out the assay are described in the art, e.g., Kono et al., Biochem. 44:799, 2005; Kono et al., FEBS Lett. 580:229-232, 2006; and Robinson et al., Methods Enzymol. 315:207-218, 2000). […] Effect of estradiol or an analog compound on rhodopsin activation of rod transducing can then be measured by monitoring binding of [35S]GTPγS to transducin in the presence or absence of the compound. The reaction mixture can contain, e.g., an appropriate buffer (e.g., an HEPES buffer or 10 mM Tris/1 mM MES buffer (pH 7.5)), 1 mM dithiothreitol, 5 mM MgCl2, 115 mM NaCl, 2.5 μM transducin, 0.01% DM, and 5 nM pigment (as determined from the extinction coefficient).
We examined the effect of the 17β-estradiol on opsin signaling and transducin activation. We measured the ability of estradiol to modulate rhodopsin activation of bovine rod transducin using the radioactive filter binding assay as described in Kono et al., Biochemistry 44:799-804, 2005; and Kono & Crouch, Methods Mol. Biol. 652:85-94, 2010. […]

T1 sequence (P02699 whole entry): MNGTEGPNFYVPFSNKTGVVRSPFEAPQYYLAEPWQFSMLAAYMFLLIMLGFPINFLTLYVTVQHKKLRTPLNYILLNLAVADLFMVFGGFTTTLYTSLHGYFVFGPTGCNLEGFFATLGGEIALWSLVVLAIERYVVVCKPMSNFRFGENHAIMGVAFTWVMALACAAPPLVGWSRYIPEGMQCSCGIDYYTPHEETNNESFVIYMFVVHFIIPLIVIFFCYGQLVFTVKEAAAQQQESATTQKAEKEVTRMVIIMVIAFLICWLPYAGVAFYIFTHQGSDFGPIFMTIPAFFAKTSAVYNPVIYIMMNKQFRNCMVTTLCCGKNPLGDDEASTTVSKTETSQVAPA

35S-GTPγS bound to transducin in the presence vs. absence of 17β-estradiol ([2]; bovine rhodopsin illuminated with 15 sec pulse of yellow light, Rho+estradiol vs Rho alone, FIG. 1): about three-fold
rhodopsin activation of rod transducin (result in words) ([2]; presence of 17β-estradiol): significantly up-regulated
Compound: C[C@]12CC[C@@H]3c4ccc(O)cc4CC[C@H]3[C@@H]1CC[C@@H]2O [17β-estradiol]
potency in estrogenic effect relative to estriol ([1]; estradiol vs estriol): about 80 times
potency in estrogenic effect relative to estrone ([1]; estradiol vs estrone): about 10 times
